± gives the expanded uncertainty stated by the source.
Columns and labels:
[1] = 344.15 K; for mass density: Vibrating tube method; for surface tension liquid-gas: Pendant drop shape
[2] = 344.15 K, Liquid, pendant drop shape

SMILES | mass density ([1]; 101.33 kPa, Gas) [kg/m3] | mass density ([1]; 101.3 kPa, Liquid) [kg/m3] | surface tension liquid-gas ([1]; Liquid) [mN/m] | interfacial tension ([2]; 100 kPa) [mN/m] | interfacial tension ([2]; 1000 kPa) [mN/m] | interfacial tension ([2]; 2000 kPa) [mN/m] | interfacial tension ([2]; 3000 kPa) [mN/m] | interfacial tension ([2]; 4000 kPa) [mN/m] | interfacial tension ([2]; 5000 kPa) [mN/m] | interfacial tension ([2]; 6000 kPa) [mN/m] | interfacial tension ([2]; 7000 kPa) [mN/m] | interfacial tension ([2]; 8000 kPa) [mN/m] | interfacial tension ([2]; 9000 kPa) [mN/m] | interfacial tension ([2]; 10000 kPa) [mN/m] | interfacial tension ([2]; 11000 kPa) [mN/m] | interfacial tension ([2]; 12000 kPa) [mN/m] | interfacial tension ([2]; 13000 kPa) [mN/m] | interfacial tension ([2]; 14000 kPa) [mN/m]
O=C=O [carbon dioxide] | 1.563 ± 0.032 | – | – | – | – | – | – | – | – | – | – | – | – | – | – | – | – | –
CCCCCCCCCCCC [dodecane] | – | 712.1 ± 0.22 | 20.72 ± 0.24 | – | – | – | – | – | – | – | – | – | – | – | – | – | – | –
CCCCCCCCCCCC [dodecane] + O=C=O | – | – | – | 20.72 ± 0.02 | 18.54 ± 0.02 | 16.53 ± 0.02 | 14.74 ± 0.02 | 13.03 ± 0.02 | 11.31 ± 0.02 | 9.57 ± 0.02 | 7.82 ± 0.02 | 6.12 ± 0.02 | 4.57 ± 0.02 | 3.24 ± 0.02 | 2.26 ± 0.02 | – | – | –
CCCCCCCCCCCCC [tridecane] | – | 720.2 ± 0.22 | 21.56 ± 0.24 | – | – | – | – | – | – | – | – | – | – | – | – | – | – | –

The remaining lines, values ahead:

mass density ([1]; 101.33 kPa, Gas) [kg/m3] | mass density ([1]; 101.3 kPa, Liquid) [kg/m3] | surface tension liquid-gas ([1]; Liquid) [mN/m] | interfacial tension ([2]; 100 kPa) [mN/m] | interfacial tension ([2]; 1000 kPa) [mN/m] | interfacial tension ([2]; 2000 kPa) [mN/m] | interfacial tension ([2]; 3000 kPa) [mN/m] | interfacial tension ([2]; 4000 kPa) [mN/m] | interfacial tension ([2]; 5000 kPa) [mN/m] | interfacial tension ([2]; 6000 kPa) [mN/m] | interfacial tension ([2]; 7000 kPa) [mN/m] | interfacial tension ([2]; 8000 kPa) [mN/m] | interfacial tension ([2]; 9000 kPa) [mN/m] | interfacial tension ([2]; 10000 kPa) [mN/m] | interfacial tension ([2]; 11000 kPa) [mN/m] | interfacial tension ([2]; 12000 kPa) [mN/m] | interfacial tension ([2]; 13000 kPa) [mN/m] | interfacial tension ([2]; 14000 kPa) [mN/m] | SMILES
– | 727.1 ± 0.22 | 22.07 ± 0.25 | – | – | – | – | – | – | – | – | – | – | – | – | – | – | – | CCCCCCCCCCCCCC [tetradecane]
– | – | – | 22.07 ± 0.02 | 20.41 ± 0.02 | 18.55 ± 0.02 | 16.7 ± 0.02 | 14.87 ± 0.02 | 13.06 ± 0.02 | 11.31 ± 0.02 | 9.61 ± 0.02 | 8 ± 0.02 | 6.48 ± 0.02 | 5.07 ± 0.02 | 3.78 ± 0.02 | 2.63 ± 0.02 | 1.64 ± 0.02 | 0.82 ± 0.02 | CCCCCCCCCCCCCC [tetradecane] + O=C=O
– | – | – | 21.56 ± 0.02 | 19.68 ± 0.02 | 17.65 ± 0.02 | 15.67 ± 0.02 | 13.77 ± 0.02 | 11.94 ± 0.02 | 10.18 ± 0.02 | 8.52 ± 0.02 | 6.95 ± 0.02 | 5.49 ± 0.02 | 4.13 ± 0.02 | 2.89 ± 0.02 | 1.77 ± 0.02 | 0.78 ± 0.02 | – | CCCCCCCCCCCCC [tridecane] + O=C=O
